For the data set, the system named is skin. The data set is described as follows: Skin compatibility, 48 h occlusive patch test, modified Draize evaluation. Particulars: 1% in water, 48 hours under occlusion, 50 test subjects.

Procedure: In this procedure, the GLP Guidelines and the recommendations of the COLIPA work group (Walker A. P. et al.: Test Guidelines for Assessment of Skin Compatibility of Cosmetic Finished Products in Man, Food and Chemical Toxicology 34, 1996, pages 651 to 660) were observed.
The model noxious substance sodium lauryl sulfate at a concentration of 1% in water served as the positive control. Water itself served as the negative control.
The evaluation of the test reaction was carried out after 48 and 72 hours in accordance with the modified Draize test.

Take `CCCCCCCCCCCCOS(=O)(=O)[O-].[Na+]` [SDS, sodium lauryl sulfate]: the “positive reaction, number of test subjects” value stood at 14 test subjects.

For the origin of these results see patent publication US7182965B2, “Soluble composition containing sporopollenin and the use thereof” (priority 2002, dated 2007).
